{"source": "patent US20110038855A1", "about": "“TRAIL AND METHODS OF MODULATING T CELL ACTIVITY AND ADAPTIVE IMMUNE RESPONSES USING TRAIL” (priority 2005, published 2011)", "key": {"[1]": {"system": "E1B192-200-specific CD8+ T cells", "type": "cell-based, mouse", "conditions": "for secondary expansion of purified helpless CD8+ T cells (fold expansion of IFN-γ-producing E1B192-200-specific CD8+ T cells): caspase inhibitors 20 μM, 6 days after in vitro restimulation, CD4-depleted mice, FIGS. 1a, 1b"}, "[2]": {"system": "GP33-41-specific CD8+ T cells", "type": "cell-based, mouse", "conditions": "6 days"}}, "note": "Peptide text beside a SMILES is read from it. * marks the point of attachment. Cbz = O=C(OCc1ccccc1)*; CH2F = FC*", "data": [{"molecule": "CC(C)C(NC(=O)c1ccc2ccccc2n1)C(=O)NC(CC(=O)O)C(=O)COc1c(F)cccc1F", "note": "(stereo not drawn) [qVD-OPh, quinoline-Val-Asp-CH2-difluorophenoxy]", "values": [{"measurement": "secondary expansion of purified helpless CD8+ T cells (fold expansion of IFN-γ-producing E1B192-200-specific CD8+ T cells)", "setting": "[1]", "result": "restored secondary expansion"}]}, {"molecule": "COC(=O)C[C@H](NC(=O)[C@H](C)NC(=O)[C@@H](NC(=O)OCc1ccccc1)C(C)C)C(=O)CF", "note": "[zVAD-fmk, benzyloxycarbonyl-Val-Ala-Asp-fluoromethyl ketone] (Cbz-Val-Ala-Asp(OMe)-CH2F)", "values": [{"measurement": "secondary expansion of purified helpless CD8+ T cells (fold expansion of IFN-γ-producing E1B192-200-specific CD8+ T cells)", "setting": "[1]", "result": "restored secondary expansion"}, {"measurement": "secondary expansion of helpless LCMV-specific CD8+ T cells", "setting": "[2]", "result": "restored"}]}, {"molecule": "recombinant TRAIL (protein) PRGGRPQKVAAHITGITRRSNSALIPISKDGKTLGQKIESWESSRKGHSFLNHVLFRNGELVIEQEGLYYIYSQTYFRFQEAEDASKMVSKDKVRTKQLVQYIYKYTSYPDPIVLMKSARNSCWSRDAEYGLYSIYQGGLFELKKNDRIFVSVTNEHLMDLDQEASFFGAFLIN", "values": [{"measurement": "secondary expansion of helpless CD8+ T cells from TRAIL-deficient mice in presence of exogenous TRAIL", "setting": "[1]; CD4-depleted TRAIL-/- mice, 6 days, FIG. 4b", "result": "failed to do so"}, {"measurement": "secondary expansion of helped CD8+ T cells in presence of exogenous TRAIL", "setting": "[1]; intact wild type mice, 6 days, FIG. 4a", "result": "completely inhibited secondary expansion"}]}]}
